Consider 17 molecules from PubChem BioAssay (NCI).

Common to all, as to test: NCI tumour cell line growth inhibition, 48 h
Test [1] deals with LOX IMVI melanoma.
Test [2] relates to ACHN renal.
Test [3] relates to SK-MEL-2 melanoma.
In test [4] the test system is SNB-19 CNS.
For test [5], the system named is NCI-H460 lung.
In test [6] the test system is A549 NSCLC.
The test system of test [7] is RXF 393 renal.
In test [8] the test system is HS 578T breast.
The subject of test [9] is NCI/ADR-RES ovarian.
Test [10] relates to BT-549 breast.

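Results reflect a 48-hour exposure of cells in 96-well plates to compound at five concentrations. GI50 marks 50% less growth. TGI is the concentration that stops growth completely.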

As to `CCOC(=O)C(=O)Nc1ccc(Cl)cc1C`, the TGI in [1], in [2], in test [3], in test [4], in test [5] and in test [6] was over 100 µM each time. In test [7], this molecule had a TGI of over 100 µM.
On to `O=C(O)c1cc2ccccc2c(N=Nc2cc(C(F)(F)F)ccc2Cl)c1O`, for which the TGI in [8] was over 100 µM; in test [2], over 100 µM; in [3], over 100 µM; in test [4], 21.5 µM; in [9], over 100 µM; in [5], over 100 µM. The TGI in test [6] and in test [7] was over 100 µM each time.
Turning to `Cc1cc2cn3c4ccc(O)cc4[nH]c(=O)c3c2cc1C`, the GI50 was 0.0471 µM in test [2]; 0.0411 µM in test [3]; 0.0358 µM in test [4]; 0.0308 µM in test [6]; 0.0258 µM in [7]. For the same molecule, the TGI was 1.64 µM in [2]; 1.97 µM in test [3]; 1.68 µM in test [4]; 1.04 µM in [6]; 1.43 µM in [7].
As for `O=S(=O)(SCc1ccccc1)C(c1ccccc1)c1ccccc1`, the TGI in test [1], in test [2], in [3], in [4], in test [5] and in test [6] was over 100 µM in each case. Further, the TGI in test [7] turned out to be 68 µM.
For `O=C(CC1(O)C(=O)Nc2ccccc21)c1ccco1` (configuration not stated), the TGI in test [1], in test [2], in test [3], in [4], in test [5] and in [6] was over 100 µM in each case. Besides, the TGI in [7] was over 100 µM.
With `COC(=O)CCC(=O)Nc1cc(Cl)ccc1Cl`, the TGI in [1], in [2], in test [3], in test [4], in test [5] and in [6] was over 100 µM each time. The same molecule registered a TGI in [7] of 65.8 µM.
Consider `CN(C)/N=C(/c1nc2ccc([N+](=O)[O-])cc2[nH]c1=O)C(O)c1ccco1` (configuration not stated), for which the TGI in test [1], in [2], in test [4], in test [5], in [6] and in test [7] was over 100 µM each time.
On to `O=C(O)/C(Cl)=C(\Cl)C(=O)NC1C2CC3CC(C2)CC1C3` (configuration not stated), for which the TGI in test [1], in test [2], in test [4] and in test [6] was over 100 µM in each case.
On to `COc1ccc(C(=O)C(c2ccc(OC)cc2)C2OC(=O)C(Cl)=C2Cl)cc1` (configuration not stated), for which the TGI in test [1], in [2], in test [3], in [4], in [5] and in test [6] was over 100 µM in each case. Moreover, the TGI in test [7] is over 100 µM.
Take `CC(=O)OC1CC2Oc3ccc(C)cc3C(C)(O2)C1=O` (configuration not stated): the TGI in test [1], in test [2], in test [4], in test [5], in test [6] and in [7] was over 100 µM each time.
In the case of `O=Cc1ccc(-c2ccc(-c3nc4ccccc4o3)cc2)s1`, the GI50 was 18 µM in [10]; 16.7 µM in test [1]; 31.5 µM in test [2]; 63.4 µM in test [3]; 49.2 µM in [4]; 27.2 µM in test [9]. For the same molecule, the GI50 in [5] was 23.7 µM; in [6] it was 70.5 µM; in test [7], 49.4 µM. In addition, the TGI is 52.6 µM in [10]; 36 µM in test [1]; over 100 µM in test [2]; over 100 µM in test [3]; over 100 µM in test [4]; 79.4 µM in [9]. Besides, the TGI in test [5] was 85.3 µM; in test [6], over 100 µM; in [7], over 100 µM.
Consider `Cc1ccc(NC(=O)C(=O)CC(=O)C2CCOC2=O)c(C)c1` (configuration not stated), for which the TGI in [1], in test [2], in test [3], in test [4], in [5] and in [6] was over 100 µM in each case. The molecule also showed a TGI in [7] of over 100 µM.
Turning to `O=C(Cc1nc2ccccc2s1)C(=O)Nc1cccc(Cl)c1`, the TGI in [1], in test [2], in [3], in test [4], in test [6] and in test [7] was over 100 µM in each case.
As to `COc1cc(O)c2c(c1)C(=O)C=C(Cl)C2=O`, the TGI in test [1], in [2], in test [3], in test [4], in test [6] and in [7] was over 100 µM throughout.
Turning to `O=C(Nc1cccc(Cc2cccc(NC(=O)c3ccccc3)c2)c1)c1ccccc1`, the TGI in [1] is over 100 µM; in test [2] it was over 100 µM; in test [3], over 100 µM; in [4], 94.6 µM; in test [5], over 100 µM; in [6] it was over 100 µM. In [7], this molecule showed a TGI of 46.6 µM.
As to `O/N=C1/C(=C/c2ccc(Oc3ccccc3)cc2)CCCC1C(NO)c1ccc(Oc2ccccc2)cc1` (configuration not stated), the TGI in test [1] is 29.1 µM; in test [2] it was over 100 µM; in test [3], over 100 µM; in test [4], over 100 µM; in test [5], over 100 µM; in test [6], over 100 µM. Further, in test [7], the TGI stood at 52.2 µM.
As to `CC1(C)OB(O)OC1(C)C`, the TGI in test [1], in test [2], in [3], in test [4], in [5] and in test [6] was over 100 µM throughout. This molecule registered a TGI in test [7] of over 100 µM.
